From patent US20200102264A1, “MARMELIN ANALOGS AND METHODS OF USE IN CANCER TREATMENT” (THE UNIVERSITY OF KANSAS, priority 2014, published 2020)
“Also recorded” adds a separate entry of the source.

Legend:
Type in all cases: cell-based
[1] = test system: MiaPaCa-2 pancreatic cancer cells; experiment: hexoseaminidase cell proliferation assay, MiaPaCa-2
Experimental: (§1) Using hexoseaminidase assay, we determined the effect of the compounds on cell proliferation. […] The IC50 value at 48 hours is below 10 μM in all the cancer cell lines.
(§2) Using hexoseaminidase assay, we determined the effect of the compounds on cell proliferation. […] The MRL16 IC50 value at 48 hours is below 0.3 μM in Colon cancer cell lines. […] Overall, the analogs can be used as chemotherapeutic agents against colon and pancreatic cancer.

[2] = test system: PanC-1 pancreatic cancer cells; experiment: hexoseaminidase cell proliferation assay, PanC-1
Experimental: as §1, §2

[3] = test system: colon, pancreatic and bladder cancer cells; experiment: hexoseaminidase cell proliferation assay, summaries over cell lines; settings: dose and time dependent
Experimental: Water solubility studies were performed with the CD/analog complexes. […] The observed IC50 value of THBCD at 48 h is below 10 μM in all the colon, pancreatic and bladder cancer cells.
as §1, §2

SW480 colon cancer cells = experiment: hexoseaminidase cell proliferation assay, SW480
Source text: (§3) Using hexoseaminidase assay, we determined the effect of the compounds on cell proliferation. […]
(§4) Using hexoseaminidase assay, we determined the effect of the compounds on cell proliferation. […] […] […] Overall, the analogs can be used as chemotherapeutic agents against colon and pancreatic cancer.

[4] = test system: HCT116 colon cancer cells; experiment: hexoseaminidase cell proliferation assay, HCT116
Source text: as §3, §4

SW480 cells [5] = experiment: cell cycle analysis, SW480; settings: SW480, Table 3
Experimental: The analogs were tested to determine the ability induce death of colon cancer cells.

cancer stem cells = experiment: colonosphere formation
Experimental: It was also determined the analogs inhibit colonosphere formation from cancer stem cells. […] The columns are 0, 10, 25, and 50 micromolar concentrations of the compounds labeled by rows.
The effect of the compounds on colonosphere formation was determined. […] Overall, the analogs have shown they can be used as chemotherapeutic agents against colon, pancreatic and bladder cancer.

SW480 cells [6] = experiment: colony formation, SW480
HCT116 cells [7] = experiment: colony formation, HCT116
HCT116 cells [8] = experiment: cell cycle analysis, HCT116; settings: HCT116, Table 3
PanC-1 cells = experiment: colony formation, PanC-1
[9] = test system: 253JBV bladder cancer cells; experiment: hexoseaminidase cell proliferation assay, 253JBV
Experimental: as §1

KU7 bladder cancer cells = experiment: hexoseaminidase cell proliferation assay, KU7
Experimental: as §1

MiaPaCa-2 cells = experiment: colony formation, MiaPaCa-2

IC50 ([1]; MiaPaCa-2, 24 h) [µM]	IC50 ([1]; MiaPaCa-2, 48 h) [µM]	IC50 ([1]; MiaPaCa-2, 72 h) [µM]	IC50 ([2]; PanC-1, 24 h) [µM]	IC50 ([2]; PanC-1, 48 h) [µM]	IC50 ([2]; PanC-1, 72 h) [µM]	IC50 (SW480 colon cancer cells; SW480, 24 h) [µM]	IC50 (SW480 colon cancer cells; SW480, 48 h) [µM]	IC50 (SW480 colon cancer cells; SW480, 72 h) [µM]	IC50 ([4]; HCT116, 24 h) [µM]	IC50 ([4]; HCT116, 48 h) [µM]	IC50 ([4]; HCT116, 72 h) [µM]	Compound	inhibition of cell proliferation (in words) [3]	colonosphere formation (cancer stem cells)	colony formation (SW480 cells [6])	colony formation (HCT116 cells [7])	colony formation (PanC-1 cells)	colony formation (MiaPaCa-2 cells)	further results
–	–	–	–	–	–	–	–	–	–	–	–	C/C(=N\NC(=O)c1ccc(O)cc1)c1ccc2ccccc2c1O [MRL24]	potent inhibitor	–	–	–	–	–	IC50 ([1]; Homo sapiens, MIA PaCa-2, MiaPaCa-2, 24 h): > 10 µM; IC50 ([1]; Homo sapiens, MIA PaCa-2, MiaPaCa-2, 48 h): > 10 µM; IC50 ([1]; Homo sapiens, MIA PaCa-2, MiaPaCa-2, 72 h): 5 µM; IC50 ([2]; Homo sapiens, PANC-1, 24 h): > 10 µM; IC50 ([2]; Homo sapiens, PANC-1, 48 h): 5 µM; IC50 ([2]; Homo sapiens, PANC-1, 72 h): 4 µM; IC50 (SW480 colon cancer cells; Homo sapiens, SW480, 24 h): > 10 µM; IC50 (SW480 colon cancer cells; Homo sapiens, SW480, 48 h): 10 µM; IC50 (SW480 colon cancer cells; Homo sapiens, SW480, 72 h): 4 µM; IC50 ([4]; Homo sapiens, HCT-116, HCT116, 24 h): > 10 µM; IC50 ([4]; Homo sapiens, HCT-116, HCT116, 48 h): 3.5 µM; IC50 ([4]; Homo sapiens, HCT-116, HCT116, 72 h): 2 µM
> 50	25	10	> 50	15	8	> 50	> 50	15	> 50	> 50	–	O=C(N/N=C/c1ccc(O)c(O)c1)c1cc2ccccc2cc1O [MRL DHB]	potent inhibitor of proliferation of pancreatic cancer cells; also recorded: inhibit proliferation	significantly inhibited colonosphere formation	significantly inhibited colony formation	significantly inhibited colony formation	–	–	G0/G1 (%) (SW480 cells [5]): 60.7%; G2M (%) (SW480 cells [5]): 18.4%; S (%) (SW480 cells [5]): 14.1%; SubG0 Dead Cells (%) (SW480 cells [5]): 6.1%; IC50 ([1]; MiaPaCa-2, 72 h, listed as DHB): 25 µM; IC50 ([2]; PanC-1, 48 h, listed as DHB): 10 µM; G0/G1 (%) (HCT116 cells [8]): 40.7%; G2M (%) (HCT116 cells [8]): 10.4%; S (%) (HCT116 cells [8]): 13.0%; SubG0 Dead Cells (%) (HCT116 cells [8]): 34.2%
40	8	6	45	10	7	25	8	8	10	6	6	O=C(N/N=C/c1ccc2ccccc2c1O)c1cc2ccccc2cc1O [NAL]	potent inhibitor	potent inhibitors of colonosphere formation	inhibit colony formation	inhibit colony formation	inhibit colony formation	inhibit colony formation	IC50 ([9]; 24 h): > 50 µM; IC50 ([9]; 48 h): 10 µM; IC50 ([9]; 72 h): 7 µM; IC50 (KU7 bladder cancer cells; KU7, 24 h): 10 µM; IC50 (KU7 bladder cancer cells; KU7, 48 h): 10 µM; IC50 (KU7 bladder cancer cells; KU7, 72 h): 6 µM
> 50	> 50	8	> 50	10	8	> 50	> 50	8	25	8	6	O=C(N/N=C/c1ccccc1O)c1cc2ccccc2cc1O [SAL]	–	potent inhibitors of colonosphere formation	inhibit colony formation	inhibit colony formation	inhibit colony formation	inhibit colony formation	–
